Laboratory results from patent publication US8853188B2, “Compositions and methods for cancer treatment” (Women and Infants Hospital of RI, Inc., priority 2005, dated 2014).
Entries after “also recorded” stand apart in the source; their conditions may differ.

Experiments:
Assay type in all cases: cell-based
[1] = tested on: panel of cancer cells; assay: Antiproliferative and cytotoxic activity on a panel of cancer cells (MTS, 96 well plates)
Excerpt: A panel of cancer cells is used to evaluate the antiproliferative and cytotoxic activities of B3CD and related analogs. The cells include colon (Colo), breast (MCF-7 and MDA-MB-231), lung (A549), prostate PC3 and LNCaP), melanoma (SK-MEL-31), renal (Caki-1), ovarian (OVCAR-3), bladder (T24), pancreatic (BxPC-3), hepatocarcinoma (Hep3B), neuroblastoma (SH-SY5Y), glioblastoma (SNB-19), medulloblastoma (D283 Med), skin (LS123), squamous cell carcinoma (Scc-15), acute promyelocytic leukemia (APL), myeloblastic (HL-60) and myelomonocytic (U937).
The anticancer activity testing will be carried out by high throughput screening. The cancer cells will be cultured in 96 well plates and treated with the library. B3CD has been tested in this system and was effective at a 200 nM dose. For general screening, 2-200 nM doses will be used. Cells will be treated with the compounds for 12, 24, 48 and 72 hours. A 96 well plate format allows testing a large number of compounds simultaneously. An MTS based colorimetric method of evaluation of proliferation will be utilized, which is widely used in cancer drug discovery. The fingerprint of profiled drugs using 60 cell-line screening program by NCl using COMPARE algorithm (Paull K D, Shoemaker R H, Hodes L, Monks A, Scudiero D A, Rubinstein L, Plowman J, Boyd M R. Display and analysis of patterns of differential activity of drugs against human tumor cell lines: development of mean graph and COMPARE algorithm. J Natl Cancer Inst 1989; 81:1088).
(§1) Materials and methods. Proliferation was measured by MTS and BrdU incorporation assays. Apoptosis was assessed by DNA fragmentation, Cell Death Detection ELISA and caspase-3-assays. Effect of B3CD on TrkB signaling by BDNF was assessed by Western Blot analysis of AKT and ERK phosphorylation. The effect on angiogenesis was determined by chick chorioallantoic membrane (CAM) assay and aortic ring assay.

[2] = tested on: keratinocytes; assay: Apoptosis by DNA fragmentation, FIG. 4A
Procedure: as §1
(§2) B3CD was tested on the panel of cell described above. […] Such cell-type specificity is not uncommon. […] However, keratinocytes were not affected by B3CD (FIG. 4A; Lane-2). In addition, caspase-3 activity was increased by B3CD (FIG. 4B). These studies indicated an underlying apoptotic mechanism in the anticancer activity of B3CD.

[3] = tested on: ovarian cancer cells; assay: Apoptosis by DNA fragmentation, FIG. 4A
Procedure: as §1, §2

[4] = tested on: prostate cancer cells; assay: Apoptosis by DNA fragmentation, FIG. 4A
Procedure: as §1, §2

[5] = tested on: caspase-3; assay: Caspase-3 assay in neuroblastic cells, FIG. 4B
Procedure: as §1, §2

[6] = tested on: SK-N-SH, SH-Sy5Y, SMS-KCN and SMS-R neuroblastic cells; assay: Viability and proliferation of neuroblastoma cells, 48 hrs; design: inhibition of proliferation: dose or concentration left out as unconfirmed
Procedure: as §1
(§3) Neuroblastoma cells were treated with B3CD for 48 hrs. […] AT 0.5 nM, B3CD inhibited >50% (p<0.035) and >90% at […] (p<0.01) viability and proliferation respectively.

[7] = tested on: AKT; assay: Western Blot analysis of AKT phosphorylation; settings: neuroblastoma cells
Procedure: as §1, §3

[8] = tested on: TrkB signaling by BDNF; assay: Effect on TrkB signaling by BDNF (Western Blot); settings: neuroblastoma cells
Procedure: as §1, §3

[9] = tested on: SH-SY5Y cells; assay: DNA laddering by agarose gel electrophoresis; settings: 250 nM, 48 hours
Procedure: (§4) Initially, during regular microscopic examination of the B3CD treated cells, the cells were condensing and floating in the culture dishes showing indications of apoptosis. In order to determine apoptosis, SK-N-SH and SH-SY5Y cells were treated with 250 nM B3CD for 48 hours. DNA was isolated and analyzed by agarose gel electrophoresis.

[10] = tested on: SK-N-SH cells; assay: DNA laddering by agarose gel electrophoresis; settings: 250 nM, 48 hours
Procedure: as §4

[11] = tested on: SK-N-SH cells; assay: Cell cycle analysis; settings: 400 nm
[12] = tested on: caspase-3; assay: Caspase-3 activation with specific substrate in SK-N-SH cells; settings: 250 nM, compared to vehicle treated control
Procedure: Caspases are integral to apoptosis in cells. Following the treatment of SK-N-SH cells with 250 nM B3CD, activation of caspase-3 was measured by using specific substrate.

[13] = tested on: IMR-32 cells; assay: Apoptosis in apoptosis-resistant NB cells; settings: IMR-32; data not shown
Procedure: (§5) NB is characterized with defective apoptotic pathways. […] Neuronal (N-) type SH-SY5Y and IMR-32 cells, and stromal (S-) type SMS-KCNR cells which are resistant to apoptosis were used. […] A defect in caspase-8 or its activation causes resistance to apoptosis and in turn to chemotherapy in all these cells. On the other hand, these cells carry intact intrinsic apoptotic pathway, and executioner caspase-3 is activated by caspase-9 route.
(§6) In depth studies were carried out to assess the activation of intrinsic and extrinsic apoptotic pathways. […] Caspase-9 was activated by B3CD in these cells (FIG. 10B), indicating an active role of intrinsic pathway of apoptosis. […] However, caspase-8 was undetectable in IMR-32 and SH-SY5Y cells.
(§7) Although caspase-8 was detected in SMS-KCNR cells, it was not activated by B3CD (FIG. 10D). Actin immunoblotting was used as loading control in the above studies (data not shown).

[14] = tested on: SMS-KCNR cells; assay: Apoptosis in apoptosis-resistant NB cells; settings: data not shown
Procedure: as §5, §6, §7

[15] = tested on: Caspase-9; assay: Caspase-9 immunoblot in NB cells; settings: SMS-KCNR, IMR-32 and SH-SY5Y cells
Procedure: FIG. 10B. Caspase-9 immunoblot.
as §6

[16] = tested on: cytochrome-c; assay: Cyt-C immunoblot of cytosol of NB cells; settings: SMS-KCNR, SH-SY5Y and IMR-32 cells
Procedure: FIG. 10C. Cyt-C immunoblot of cytosol of NB cells: A and D-SMS-KCNR; B and E-5H-SY5Y and C and F-IMR-32.
as §6

[17] = tested on: Human umbilical vein endothelial cells (HUVEC); assay: Endothelial cell viability / proliferation assay; settings: 25-400 nM, 24 hours
Procedure: (§8) Human umbilical vein endothelial cells (HUVEC) were treated with B3CD (25, 50, 100, 200 and 400 nM) for 24 hours and proliferation was measured as before. Vehicle and CD treated controls were used in each experiment. […] Following the treatment with B3CD, the endothelial cells were rounded up and floated, showing indications of apoptosis similar to NB.

[18] = tested on: Human umbilical vein endothelial cells (HUVEC); assay: Endothelial cell BrdU incorporation assay; settings: 25-400 nM, 24 hours
Procedure: as §8

Question: What does the source list for `C=C1CC[C@H](OC(=O)CBr)C/C1=C/C=C1\CCC[C@]2(C)[C@@H]([C@H](C)CCCC(C)(C)O)CC[C@@H]12` [B3CD, bromoacetic acid 3-{2-[1-(5-hydroxy-1,5-dimethyl-hexyl)-7a-methyl-octahydro-inden-4-ylidene]-ethylidene}-4-methylene-cyclohexyl ester]?
Answer: anticancer activity in high throughput screening system ([1]; 200 nM dose): effective; cytotoxicity ([1]; preliminary studies): exhibits cytotoxicity; DNA laddering (apoptosis) [2]: not affected; DNA laddering (apoptosis) [3]: distinct DNA laddering characteristic of apoptosis; DNA laddering (apoptosis) [4]: distinct DNA laddering characteristic of apoptosis; caspase-3 activity [5]: increased; also recorded: activated caspase-3; inhibition of proliferation (in words) [6]: dose dependent manner; cytotoxicity at 0.0005 µM ([6]; Neuroblastoma cell, 0.5 nM, p<0.035, read-out: inhibition of viability): > 50%; inhibition of proliferation ([6]; p<0.01): > 90%; phosphorylation of AKT [7]: inhibited phosphorylation; TrkB signaling by BDNF [8]: inhibited; DNA laddering [9]: distinct DNA laddering pattern characteristic of apoptosis; DNA laddering [10]: distinct DNA laddering pattern characteristic of apoptosis; apoptotic cells ([11]; 7% in control): 45%; cell cycle effect ([11]; data not shown): G0/G1 block, inhibition of S-phase; increase of caspase-3 activity [12]: ~6 fold; induction of apoptosis [13]: induced apoptosis; induction of apoptosis [14]: induced apoptosis; caspase-9 activation (immunoblot) [15]: activated; cytochrome-c release into cytosol [16]: released into cytosol; proliferation of EC [17]: strongly inhibited the proliferation; viability of EC [17]: dose dependent decrease in viability; BrdU incorporation [18]: strongly inhibited BrdU incorporation
